Reference: US5419898A, “Antiallergic composition for ophthalmic or nasal use” (priority 1992, dated 1995)
Where a name gives a salt, the structure may show the parent alone.

System: histamine-induced conjunctivitis
Test: Effect on rat histamine-induced conjunctivitis
Type: in vivo, Male Wistar rats
Conditions: 0.5 w/v % cetirizine hydrochloride; 3 μl per eye 40 and 20 minutes before histamine
Description: Male Wistar rats of about 100 g in weight were injected subconjunctivally each with 50 μl of 0.1 w/v % histamine at the upper eyelid. Each of the following test ophthalmic compositions in solution form was instilled into both eyes of the rats in the corresponding group at a dose of 3 μl for each eye 40 and 20 minutes before the histamine injection. The rats were sacrificed one hour after the histamine injection. The palpebral conjunctival edema weight was measured, and the edema inhibition rate was calculated using the edema weight of the physiological saline group as the maximal response.

O=C(O)COCCN1CCN(C(c2ccccc2)c2ccc(Cl)cc2)CC1 (stereo not shown) [cetirizine hydrochloride]
edema inhibition rate: about 88.8%
